The source of these data is article PMC7531004, “Discovery of gramicidin A analogues with altered activities by multidimensional screening of a one-bead-one-compound library” (Nature Communications, 2020).

By viability is commonly meant a per cent measure of how many cells are alive, often set against a control.

Where a SMILES comes first, the peptide text is derived from it. [ ]: non-standard residue; d: D form. The star is where a group is joined. NHCH2CH2OH = OCCN*; For = O=C*

Data set [1] is described as follows: H+/Na+ transport assay of bead-derived peptides (one-point).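 Note: relative to parent gramicidin A activity set to 1.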 It is filed as biochemical. More on the design: key: relative activity; mean of two control wells = 1.00. The conditions noted are these: bead-derived peptide solution, EYPC/EYPG LUVs. In outline:
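One-point screen: peptide + pyranine-loaded LUVs, 30 min RT with vortexing, 96-well. Read-out is fluorescence intensity scaled as 100 × (Ix – I0)/(Imax – I0). Imax from Triton X-100, I0 from untreated vesicles, and the mean of the two control wells is set to 1.00.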

The conditions of data set [2]: cell viability/%. Summed up: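 First, library peptide stocks are diluted 250-fold in RPMI1640 with 10% heat-inactivated FBS. Next, they are mixed with P388 cells to give 1 × 10^4 cells/mL and incubated 92 h at 37 °C, 5% CO2. Finally, viability (%) is scored by WST-1 absorbance at 415 nm.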
For data set [3], the system named is Streptococcus pyogenes SSI-9. Kind of data set: Antibacterial activity assay of bead-derived peptides (three concentrations). It is filed as cell-based. More on the design: key: +++: inhibition by the 640-fold diluted peptide solution; ++: inhibition by the 160-fold diluted solution; +: inhibition by the 40-fold diluted solution; -: no inhibition. The conditions noted are these: S. pyogenes, bead-derived peptide solution, three concentrations. Summed up: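 Three stock dilutions per peptide (none, 4-fold, 16-fold in DMSO) are screened in 96-well format. The medium is blood-supplemented cation-adjusted MHB, inoculated with 2 × 10^5 CFU S. pyogenes SSI-9. Growth is read as cell precipitation at 18 h, 37 °C.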

In the case of `CC(C)C[C@@H](NC(=O)[C@H](C)NC(=O)CNC(=O)[C@@H](NC=O)C(C)C)C(=O)N[C@@H](C)C(=O)N[C@@H](C(=O)N[C@H](C(=O)N[C@@H](C(=O)N[C@@H](Cc1c[nH]c2ccccc12)C(=O)N[C@@H](C(=O)N[C@@H](Cc1c[nH]c2ccccc12)C(=O)N[C@@H](C(=O)N[C@@H](Cc1c[nH]c2ccccc12)C(=O)N[C@H](CC(C)C)C(=O)N[C@@H](Cc1c[nH]c2ccccc12)C(=O)NCCO)C(C)C)C(C)C)C(C)C)C(C)C)[C@H](C)O` [compound 2475] (For-VGA[dL]A[dT]V[dV]W[dV]W[dV]W[dL]W-NHCH2CH2OH), the “H+/Na+ transport activity normalized against the value of 1 (1.00)” value (shortened to “H+/Na+ transport activity normalized”) in data set [1] stood at 1.13. The viability in data set [2] amounted to 100%. Besides, the antibacterial activity result in data set [3] was “-”.

Regarding `CC(C)C[C@@H](NC(=O)[C@H](Cc1c[nH]c2ccccc12)NC(=O)[C@@H](CC(C)C)NC(=O)[C@@H](NC(=O)[C@H](NC(=O)[C@H](C)NC(=O)[C@H](NC(=O)[C@H](C)NC(=O)CNC(=O)[C@@H](NC=O)C(C)C)C(C)C)[C@H](C)O)C(C)C)C(=O)N[C@@H](Cc1c[nH]c2ccccc12)C(=O)N[C@H](CC(C)C)C(=O)N[C@@H](Cc1c[nH]c2ccccc12)C(=O)N[C@@H](C(=O)N[C@@H](Cc1c[nH]c2ccccc12)C(=O)NCCO)C(C)C` [compound 2495] (For-VGA[dV]A[dT]V[dL]W[dL]W[dL]W[dV]W-NHCH2CH2OH), the “H+/Na+ transport activity normalized” value in data set [1] was determined as 1.22. Moreover, in data set [2], the viability was 100%. Further, the antibacterial activity result in data set [3] is on record as “-”.

Regarding `CC(C)C[C@@H](NC(=O)[C@H](C)NC(=O)CNC(=O)[C@@H](NC=O)C(C)C)C(=O)N[C@@H](C)C(=O)N[C@H](CC(C)C)C(=O)N[C@H](C(=O)N[C@@H](C(=O)N[C@@H](Cc1c[nH]c2ccccc12)C(=O)N[C@H](CC(C)C)C(=O)N[C@@H](Cc1c[nH]c2ccccc12)C(=O)N[C@@H](C(=O)N[C@@H](Cc1c[nH]c2ccccc12)C(=O)N[C@@H](C(=O)N[C@@H](Cc1c[nH]c2ccccc12)C(=O)NCCO)C(C)C)C(C)C)C(C)C)C(C)C` [compound 2557] (For-VGA[dL]A[dL]V[dV]W[dL]W[dV]W[dV]W-NHCH2CH2OH), in data set [1], the “H+/Na+ transport activity normalized” value was 1.21. This compound also displayed a viability in data set [2] of 31%. Besides, the antibacterial activity entry in data set [3] was “++”.

With `CC(C)C[C@@H](NC(=O)[C@H](C)NC(=O)[C@H](NC(=O)[C@H](C)NC(=O)CNC(=O)[C@@H](NC=O)C(C)C)C(C)C)C(=O)N[C@H](C(=O)N[C@H](CC(C)C)C(=O)N[C@@H](Cc1c[nH]c2ccccc12)C(=O)N[C@H](CC(C)C)C(=O)N[C@@H](Cc1c[nH]c2ccccc12)C(=O)N[C@@H](C(=O)N[C@@H](Cc1c[nH]c2ccccc12)C(=O)N[C@H](CC(C)C)C(=O)N[C@@H](Cc1c[nH]c2ccccc12)C(=O)NCCO)[C@H](C)O)C(C)C` [compound 2682] (For-VGA[dV]A[dL]V[dL]W[dL]W[dT]W[dL]W-NHCH2CH2OH), in data set [1], the “H+/Na+ transport activity normalized” value turned out to be 1.06. The same compound yielded a viability in data set [2] of 100%. In addition, the antibacterial activity entry in data set [3] is reported as “+”.

`CC(C)C[C@@H](NC(=O)[C@H](C)NC(=O)[C@H](NC(=O)[C@H](C)NC(=O)CNC(=O)[C@@H](NC=O)C(C)C)C(C)C)C(=O)N[C@H](C(=O)N[C@@H](C(=O)N[C@@H](Cc1c[nH]c2ccccc12)C(=O)N[C@@H](C(=O)N[C@@H](Cc1c[nH]c2ccccc12)C(=O)N[C@@H](C(=O)N[C@@H](Cc1c[nH]c2ccccc12)C(=O)N[C@H](CC(C)C)C(=O)N[C@@H](Cc1c[nH]c2ccccc12)C(=O)NCCO)[C@H](C)O)C(C)C)C(C)C)C(C)C` [compound 2727] (For-VGA[dV]A[dL]V[dV]W[dV]W[dT]W[dL]W-NHCH2CH2OH): the “H+/Na+ transport activity normalized” value in data set [1] came to 1.05. The same compound had a viability in data set [2] of 100%. For the same compound, the antibacterial activity result in data set [3] was “-”.

In the case of `CC(C)C[C@@H](NC(=O)[C@H](C)NC(=O)CNC(=O)[C@@H](NC=O)C(C)C)C(=O)N[C@@H](C)C(=O)N[C@H](CC(C)C)C(=O)N[C@H](C(=O)N[C@@H](C(=O)N[C@@H](Cc1c[nH]c2ccccc12)C(=O)N[C@@H](C(=O)N[C@@H](Cc1c[nH]c2ccccc12)C(=O)N[C@@H](C(=O)N[C@@H](Cc1c[nH]c2ccccc12)C(=O)N[C@@H](C(=O)N[C@@H](Cc1c[nH]c2ccccc12)C(=O)NCCO)[C@H](C)O)C(C)C)C(C)C)C(C)C)C(C)C` [compound 2793] (For-VGA[dL]A[dL]V[dV]W[dV]W[dV]W[dT]W-NHCH2CH2OH), in data set [1], the “H+/Na+ transport activity normalized” value is 1.08. In data set [2], the viability was found to be 84.6%. Besides, the antibacterial activity result in data set [3] is “-”.

For the compound `CC(C)C[C@@H](NC(=O)[C@H](C)NC(=O)CNC(=O)[C@@H](NC=O)C(C)C)C(=O)N[C@@H](C)C(=O)N[C@H](CC(C)C)C(=O)N[C@H](C(=O)N[C@H](CC(C)C)C(=O)N[C@@H](Cc1c[nH]c2ccccc12)C(=O)N[C@@H](C(=O)N[C@@H](Cc1c[nH]c2ccccc12)C(=O)N[C@H](CC(C)C)C(=O)N[C@@H](Cc1c[nH]c2ccccc12)C(=O)N[C@H](CC(C)C)C(=O)N[C@@H](Cc1c[nH]c2ccccc12)C(=O)NCCO)C(C)C)C(C)C` [compound 2828] (For-VGA[dL]A[dL]V[dL]W[dV]W[dL]W[dL]W-NHCH2CH2OH), in data set [1], the “H+/Na+ transport activity normalized” value came to 1.15. The same compound showed a viability in data set [2] of 2.8%. The antibacterial activity entry in data set [3] is reported as “-”.

Consider `CC(C)C[C@@H](NC(=O)[C@H](Cc1c[nH]c2ccccc12)NC(=O)[C@H](NC(=O)[C@H](Cc1c[nH]c2ccccc12)NC(=O)[C@@H](CC(C)C)NC(=O)[C@H](Cc1c[nH]c2ccccc12)NC(=O)[C@H](NC(=O)[C@@H](NC(=O)[C@H](NC(=O)[C@H](C)NC(=O)[C@H](NC(=O)[C@H](C)NC(=O)CNC(=O)[C@@H](NC=O)C(C)C)C(C)C)C(C)C)C(C)C)[C@H](C)O)C(C)C)C(=O)N[C@@H](Cc1c[nH]c2ccccc12)C(=O)NCCO` [compound 2829] (For-VGA[dV]A[dV]V[dT]W[dL]W[dV]W[dL]W-NHCH2CH2OH), for which the “H+/Na+ transport activity normalized” value in data set [1] was 1.13. For the same compound, in data set [2], the viability turned out to be 100%. Further, the antibacterial activity entry in data set [3] is “-”.

As for `CC(C)C[C@@H](NC(=O)[C@H](C)NC(=O)[C@H](NC(=O)[C@H](C)NC(=O)CNC(=O)[C@@H](NC=O)C(C)C)C(C)C)C(=O)N[C@H](C(=O)N[C@H](CC(C)C)C(=O)N[C@@H](Cc1c[nH]c2ccccc12)C(=O)N[C@@H](C(=O)N[C@@H](Cc1c[nH]c2ccccc12)C(=O)N[C@H](CC(C)C)C(=O)N[C@@H](Cc1c[nH]c2ccccc12)C(=O)N[C@@H](C(=O)N[C@@H](Cc1c[nH]c2ccccc12)C(=O)NCCO)[C@H](C)O)C(C)C)C(C)C` [compound 2895] (For-VGA[dV]A[dL]V[dL]W[dV]W[dL]W[dT]W-NHCH2CH2OH), the “H+/Na+ transport activity normalized” value in data set [1] worked out at 1.06. In addition, the viability in data set [2] turned out to be 95.1%. Besides, the antibacterial activity entry in data set [3] is given as “-”.

As for `CC(C)C[C@@H](NC(=O)[C@H](C)NC(=O)CNC(=O)[C@@H](NC=O)C(C)C)C(=O)N[C@@H](C)C(=O)N[C@H](CC(C)C)C(=O)N[C@H](C(=O)N[C@H](CC(C)C)C(=O)N[C@@H](Cc1c[nH]c2ccccc12)C(=O)N[C@H](CC(C)C)C(=O)N[C@@H](Cc1c[nH]c2ccccc12)C(=O)N[C@H](CC(C)C)C(=O)N[C@@H](Cc1c[nH]c2ccccc12)C(=O)N[C@H](CC(C)C)C(=O)N[C@@H](Cc1c[nH]c2ccccc12)C(=O)NCCO)C(C)C` [compound 2904] (For-VGA[dL]A[dL]V[dL]W[dL]W[dL]W[dL]W-NHCH2CH2OH), the “H+/Na+ transport activity normalized” value in data set [1] turned out to be 1.09. The compound also gave a viability in data set [2] of 12.5%. Also, the antibacterial activity result in data set [3] is “-”.
